The record followed here is patent US6008219A, “Bicyclic amine derivatives and their use as anti-psychotic agents” (SmithKline Beech p.l.c., priority 1995, dated 1999).

Structures can show the parent of a compound that is named as a salt.

human D3 receptor, sequence (P35462 whole entry): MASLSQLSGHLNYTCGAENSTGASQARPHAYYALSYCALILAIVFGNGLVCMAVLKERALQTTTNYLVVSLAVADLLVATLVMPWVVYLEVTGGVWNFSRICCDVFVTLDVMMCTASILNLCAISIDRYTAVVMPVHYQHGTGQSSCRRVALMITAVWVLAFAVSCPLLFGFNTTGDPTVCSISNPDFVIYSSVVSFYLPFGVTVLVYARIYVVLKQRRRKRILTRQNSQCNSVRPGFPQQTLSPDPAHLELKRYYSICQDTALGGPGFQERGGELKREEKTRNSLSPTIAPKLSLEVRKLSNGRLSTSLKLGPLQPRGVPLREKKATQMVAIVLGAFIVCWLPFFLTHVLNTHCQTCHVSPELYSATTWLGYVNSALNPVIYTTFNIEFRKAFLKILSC

This assay addresses human D3 receptor (Homo sapiens, UniProt P35462). In words: Cytosensor Microphysiometer functional activity, antagonist mode against quinpirole (hD3-CHO cells). Type of assay: cell-based. The note with it: against 30 nM quinpirole, acidification rate, read-out: pKb values at the human D3 receptor (tested as antagonists) (converted).
On to `CCCN(CCCCNC(=O)c1ccc(-c2ccccc2)cc1)C1CCc2c(Cl)cccc2C1` (racemic) [Example 2k, 5-Chloro-N-(4-(4-phenylbenzoylamino)butyl)-2-(R,S)-propylamino-1,2,3,4-tetrahydronaphthalene, hydrochloride], for which the Kb is 0.0316 to 10 nM. The same measure for `CCCN(CCCCNC(=O)c1ccc(-c2ccccc2)cc1)C1CCc2ccc(Cl)cc2C1` (racemic) [Example 2m, 7-Chloro-N-(4-(4-phenylbenzoylamino)butyl)-2-(R,S)-propylamino-1,2,3,4-tetrahydronaphthalene, hydrochloride]: 0.0316 to 10 nM; for `CCCN(CCCCNC(=O)c1ccc(-c2ccccc2)cc1)C1CCc2cc(OC(F)(F)F)ccc2C1` (racemic) [Example 2x, N-(4-(4-Phenylbenzoylamino)butyl)-2-(R,S)-propylamino-6-trifluoromethoxy-1,2,3,4-tetrahydronaphthalene, hydrochloride]: 0.0316 to 10 nM. The same measure for `CCCN(CCCCNC(=O)c1ccc(-c2ccccc2)cc1)C1CCc2c(CC(=O)OCC)cccc2C1` (racemic) [Example 3bb, N-(4-(4-Phenylbenzoylamino)butyl)-6-(R,S)-propylamino-5,6,7,8-tetrahydronaphthalene-1-acetic acid, ethyl ester, hydrochloride]: 0.0316 to 10 nM. The same measure for `CCCN(CCCCNC(=O)c1ccc(-c2ccccc2)cc1)C1CCc2cc(CC(=O)OCC)ccc2C1` (racemic) [Example 3cc, N-(4-(4-Phenylbenzoylamino)butyl)-6-(R,S)-propylamino-5,6,7,8-tetrahydronaphthalene-2-acetic acid, ethyl ester, hydrochloride]: 0.0316 to 10 nM; for `CCCN(CCCCNC(=O)c1ccc(-c2ccccc2)cc1)C1CCc2ccc(CC(=O)OCC)cc2C1` (racemic) [Example 3dd, N-(4-(4-Phenylbenzoylamino)butyl)-7-(R,S)-propylamino-5,6,7,8-tetrahydronaphthalene-2-acetic acid, ethyl ester, hydrochloride]: 0.0316 to 10 nM; for `CCCN(CCCCNC(=O)c1ccc(-c2ccccc2)cc1)C1CCc2ccccc2C1` (racemic) [Example 10f, N-(4-(4-phenylbenzoylamino)butyl)-2-(R,S)-propylamino-1,2,3,4-tetrahydronaphthalene, hydrochloride]: 0.0316 to 10 nM. On to `CCCN(CCCCNC(=O)c1ccc(-c2ccccc2)cc1)C1CCc2c(cccc2OS(=O)(=O)C(F)(F)F)C1` (racemic) [Example 15, N-(4-(4-Phenylbenzoylamino)butyl)-2-(R,S)-propylamino-5-trifluoromethanesulfonyloxy-1,2,3,4-tetrahydronaphthalene, hydrochloride], for which the Kb was 0.0316 to 10 nM. For the compound `CCCN(CCCCNC(=O)c1ccc(-c2ccccc2)cc1)C1CCc2c(cccc2OS(C)(=O)=O)C1` (racemic) [Example 17, 5-Methanesulfonyloxy-N-(4-(4-phenylbenzoylamino)butyl)-2-(R,S)-propylamino-1,2,3,4-tetrahydronaphthalene, hydrochloride], the Kb is 0.0316 to 10 nM. Take `CCCN(CCCCNC(=O)c1ccc(-c2ccccc2)cc1)C1Cc2ccccc2C1` [Example 2p, N-(4-(4-Phenylbenzoylamino)butyl)-2-propylaminoindane, hydrochloride]: the Kb is 0.0316 to 10 nM.
